According to patent US8481576B2 (Abbott GmbH & Co. KG, priority 2004, dated 2013):

Target: T1, h5-HT5A receptor (Homo sapiens, UniProt P47898)
T1 construct: expressed in transfected cells; host or cells: HEK293
Assay: [3H]5-CT binding assay h5-HT5A
Conditions: membranes from HEK293 cells expressing h5-HT5A, 2.5 nM [3H]5-CT; read-out: Binding affinity 5-HT5A (Ki)
Procedure, shortened: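 Membranes from HEK293 cells stably expressing h5-HT5A incubated with 2.5 nM [3H]5-CT and compound in 100 mM Tris-HCl pH 7.7, 1 mM EDTA, 75 min at 30° C. Nonspecific binding with 10 μM methiothepine; filtration and scintillation counting give Ki or IC50.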

T1 sequence (P47898 whole entry): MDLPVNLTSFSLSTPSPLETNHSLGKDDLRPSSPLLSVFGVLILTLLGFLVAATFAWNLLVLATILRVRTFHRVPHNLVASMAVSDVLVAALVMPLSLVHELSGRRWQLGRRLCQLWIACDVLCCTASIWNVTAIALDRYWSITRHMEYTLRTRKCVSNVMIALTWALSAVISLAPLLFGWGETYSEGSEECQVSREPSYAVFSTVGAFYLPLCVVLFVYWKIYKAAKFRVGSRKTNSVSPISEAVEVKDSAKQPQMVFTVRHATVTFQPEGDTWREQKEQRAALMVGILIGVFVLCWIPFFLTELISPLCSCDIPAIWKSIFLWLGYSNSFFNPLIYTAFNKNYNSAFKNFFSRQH

Structure (SMILES) | Ki [nM]
COc1cccc(OC)c1CNC(=N)Nc1nc(C(=O)NC(C)C)cs1 [Example 196, 2-{[[(2,6-dimethoxybenzyl)amino](imino)methyl]amino}-N-isopropyl-1,3-thiazole-4-carboxamide] | < 50
COc1ccccc1CNC(=N)Nc1cc(C(C)(C)C)[nH]n1 [Example 200, N-(5-tert-butyl-1H-pyrazole-3-yl)-N′-(2-methoxy-benzyl)-guanidine] | 50 to 500
COc1cccc(OC)c1CNC(=N)Nc1cc(-c2ccccc2)[nH]n1 [Example 202, N-(2,6-dimethoxybenzyl)-N′-(5-phenyl-1H-pyrazole-3-yl)guanidine] | < 50
COc1cccc(OC)c1CNC(=N)Nc1cc[nH]n1 [Example 203, N-(2,6-dimethoxybenzyl)-N′-1H-pyrazole-3-ylguanidine] | < 50
COc1cccc(OC)c1CNC(=N)Nc1cc(C(C)(C)C)[nH]n1 [Example 204, N-(5-tert-butyl-1H-pyrazole-3-yl)-N′-(2,6-dimethoxybenzyl)guanidine] | < 50
COc1cccc(OC)c1CNC(=N)Nc1cc(-c2ccc(C)cc2)[nH]n1 [Example 207, N-(2,6-dimethoxybenzyl)-N′-[5-(4-methylphenyl)-1H-pyrazole-3-yl]guanidine] | < 50
COc1ccc(-c2cc(NC(=N)NCc3ccccc3OC)n[nH]2)cc1 [Example 208, N-(2-methoxybenzyl)-N′-[5-(4-methoxyphenyl)-1H-pyrazole-3-yl]guanidine] | < 50
COc1cccc(F)c1CNC(=N)Nc1cc(C(C)(C)C)[nH]n1 [Example 210, N-(5-tert-butyl-1H-pyrazole-3-yl)-N′-(2-fluoro-6-methoxybenzyl)guanidine] | < 50
COc1cccc(Cl)c1CNC(=N)Nc1cc(C(C)(C)C)[nH]n1 [Example 213, N-(5-tert-butyl-1H-pyrazole-3-yl)-N′-(2-chloro-6-methoxybenzyl)guanidine] | < 50

Second part, the compound after the results:

Ki [nM] | Structure (SMILES)
50 to 500 | COc1ccccc1CNC(=N)Nc1nc(-c2ccccc2)co1 [Example 197, N-(2-methoxybenzyl)-N′-(4-phenyl-1,3-oxazole-2-yl)guanidine]
< 50 | COc1ccccc1CNC(=N)Nc1nc(-c2ccc(F)cc2)co1 [Example 198, N-[4-(4-fluorophenyl)-1,3-oxazole-2-yl]-N′-(2-methoxybenzyl)guanidine]
< 50 | COc1cccc(OC)c1CNC(=N)Nc1nc(-c2ccccc2)co1 [Example 199, N-(2,6-dimethoxybenzyl)-N′-(4-phenyl-1,3-oxazole-2-yl)guanidine]
< 50 | COc1ccccc1CNC(=N)Nc1cc(-c2ccccc2)[nH]n1 [Example 201, N-(2-methoxybenzyl)-N′-(5-phenyl-1H-pyrazole-3-yl)guanidine]
50 to 500 | COc1ccccc1CNC(=N)Nc1cc[nH]n1 [Example 205, N-(2-methoxybenzyl)-N′-1H-pyrazole-3-ylguanidine]
< 50 | COc1ccccc1CNC(=N)Nc1cc(-c2ccc(C)cc2)[nH]n1 [Example 206, N-(2-methoxybenzyl)-N′-[5-(4-methylphenyl)-1H-pyrazole-3-yl]guanidine]
< 50 | COc1ccc(-c2cc(NC(=N)NCc3c(OC)cccc3OC)n[nH]2)cc1 [Example 209, N-(2,6-dimethoxybenzyl)-N′-[5-(4-methoxyphenyl)-1H-pyrazole-3-yl]guanidine]
< 50 | COc1ccccc1CNC(=N)Nc1cc(-c2ccc(Cl)cc2)[nH]n1 [Example 211, N-[5-(4-chlorophenyl)-1H-pyrazole-3-yl]-N′-(2-methoxybenzyl)guanidine]
< 50 | COc1cccc(OC)c1CNC(=N)Nc1cc(-c2ccc(Cl)cc2)[nH]n1 [Example 212, N-[5-(4-chlorophenyl)-1H-pyrazole-3-yl]-N′-(2,6-dimethoxybenzyl)guanidine]
< 50 | COc1ccccc1CNC(=N)Nc1ccn(C)n1 [Example 214, N-(2-methoxybenzyl)-N′-(1-methyl-1H-pyrazole-3-yl)guanidine]
